Biological target: Trehalase (Sus scrofa)
Assay: Evaluated for the inhibition of trehalase from porcine kidneys

Ki: 180 nM
Structure (SMILES): OCC1=CC(NC2COC(CO)C(O)C2O)C(O)C(O)C1O (stereo unspecified) [6-(4,5-Dihydroxy-6-hydroxymethyl-tetrahydro-pyran-3-ylamino)-4-hydroxymethyl-cyclohex-4-ene-1,2,3-triol]

Source: BindingDB's records for doi:10.1016/0960-894X(95)00055-X (1995)
